According to patent publication US7135193B2, “Liposome compositions of porphyrin photosensitizers” (QLT, Inc., priority 1992, dated 2006):

Assay: Chemical stability of liposomal BPD-MA: potency, degradation products and pH of the reconstituted solution on storage
Assay type: physicochemical
Conditions: cryodesiccated liposome formulation
Experimental: The chemical stability of the constituted dosage form was followed by monitoring the potency, degradation products and pH of the reconstituted solution. The potency of the reconstituted parenteral dosage form was assessed by chromatography with potency calculated on as is basis.

projected shelf life: at least two years
period over which potency was maintained (room temperature): at least nine months
Substance: benzoporphyrin derivative monoacid [BPD-MA]
